# Measurements published in patent publication US8071586B2, “Heterocyclyl compounds” (Hoffmann-La Roche Inc., priority 2008, dated 2011).
# Target: T1, human chemokine receptor 2 isoform B (CCR2) (Homo sapiens, UniProt P41597)
# T1 sequence (P41597 1-360 isoform P41597-2): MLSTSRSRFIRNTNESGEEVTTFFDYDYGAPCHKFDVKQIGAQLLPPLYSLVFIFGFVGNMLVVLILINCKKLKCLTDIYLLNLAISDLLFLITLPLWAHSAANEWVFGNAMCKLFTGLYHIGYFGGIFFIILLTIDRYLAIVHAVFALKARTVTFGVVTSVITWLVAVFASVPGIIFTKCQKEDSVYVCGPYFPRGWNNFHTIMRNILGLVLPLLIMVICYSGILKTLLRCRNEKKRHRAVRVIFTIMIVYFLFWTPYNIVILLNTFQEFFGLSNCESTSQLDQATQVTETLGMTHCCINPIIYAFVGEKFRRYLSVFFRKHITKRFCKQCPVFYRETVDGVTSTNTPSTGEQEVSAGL
# Test: Calcium mobilization assay (FLIPR, MCP-1 stimulated CHOK1-CCR2B-A5 cells)
# Assay type: cell-based
# Conditions: Ca mobilisation assay, CCR2 antagonist activity, inhibition of MCP-1 induced calcium increase
# Protocol: Calcium Mobilization Assay
# CHOK1-CCR2B-A5 cells (from Euroscreen) stably overexpressing the human chemokine receptor 2 isoform B were cultured in Nutrient Hams F12 medium supplemented with 5% FBS, 100 U/ml penicillin, 100 μg/ml streptomycin, 400 μg/ml G418 and 5 μg/ml puromycin.
# For the assay cells were grown overnight in 384-well black clear flat bottom polystyrene plates (Costar) at 37° C. at 5% CO2. After washing with DMEM, 20 mM Hepes, 2.5 mM probenecid, 0.1% BSA (DMEM assay buffer) cells were loaded with 4 μM Fluo-4 in the same DMEM assay buffer for 2 hours at 30° C. Excess dye was removed and cells were washed with DMEM assay buffer. 384-well compound plates were prepared with DMEM assay buffer/0.5% DMSO with or without various concentrations of test compounds. Usually compounds were tested for agonist and antagonist activity.
# Test compounds were added to the assay plate and agonist activity was monitored as fluorescence for 80 seconds with a FLIPR (488 nm excitation; 510-570 nm emission; Molecular Devices). After 20-30 min. of incubation at 30° C., […] MCP-1 (R&D; Roche) was added and fluorescence was monitored again for 80 seconds. Increases in intracellular calcium are reported as maximum fluorescence after agonist exposure minus basal fluorescence before exposure. Antagonist activity is indicated as inhibitor concentration required for 50% inhibition of specific calcium increases.
row,IC50 [nM],Structure (SMILES)
1,2,"C[C@H]1C(=O)N(CCCN2CCC3(CC3)[C@H](O)C2)CCN1C(=O)Nc1ccc(Cl)c(Cl)c1 [Example 45, (S)-4-[3-((S)-4-Hydroxy-6-aza-spiro[2.5]oct-6-yl)-propyl]-2-methyl-3-oxo-piperazine-1-carboxylic acid (3,4-dichloro-phenyl)-amide]"
2,7,"C[C@H]1C[C@H](O)CN(CCCN2CCN(C(=O)Nc3ccc(Cl)c(Cl)c3)[C@@H](C)C2=O)C1 [Example 46, (S)-4-[3-((3S,5S)-3-Hydroxy-5-methyl-piperidin-1-yl)-propyl]-2-methyl-3-oxo-piperazine-1-carboxylic acid (3,4-dichloro-phenyl)-amide]"
3,7,"C[C@H]1CCN(CCCN2CCN(C(=O)Nc3ccc(Cl)c(Cl)c3)[C@@H](C)C2=O)C[C@H]1O [Example 47, (S)-4-[3-((3S,4S)-3-Hydroxy-4-methyl-piperidin-1-yl)-propyl]-2-methyl-3-oxo-piperazine-1-carboxylic acid (3,4-dichloro-phenyl)-amide]"
4,370,"C[C@H]1C(=O)N(CCCN2CCC[C@@H](O)C2)CCN1C(=O)Nc1ccc(Cl)c(Cl)c1 [Example 48, (S)-4-[3-((R)-3-Hydroxy-piperidin-1-yl)-propyl]-2-methyl-3-oxo-piperazine-1-carboxylic acid (3,4-dichloro-phenyl)-amide]"
5,160,"C[C@H]1C(=O)N(CCCN2CCC(O)CC2)CCN1C(=O)Nc1ccc(Cl)c(Cl)c1 [Example 49, (S)-4-[3-(4-Hydroxy-piperidin-1-yl)-propyl]-2-methyl-3-oxo-piperazine-1-carboxylic acid (3,4-dichloro-phenyl)-amide]"
6,120,"C[C@H]1C(=O)N(CCCN2CCC[C@H]2CO)CCN1C(=O)Nc1ccc(Cl)c(Cl)c1 [Example 50, (S)-4-[3-((S)-2-Hydroxymethyl-pyrrolidin-1-yl)-propyl]-2-methyl-3-oxo-piperazine-1-carboxylic acid (3,4-dichloro-phenyl)-amide]"
7,250,"O=C(NCc1ccc(Cl)c(Cl)c1)N1CCC(=O)N([C@H](CO)CCN2CCC3(CC3)[C@H](O)C2)CC1 [Example 51, 4-[(S)-3-((S)-4-hydroxy-6-aza-spiro[2.5]oct-6-yl)-1-hydroxymethyl-propyl]-5-oxo-[1,4]diazepane-1-carboxylic acid 3,4-dichloro-benzylamide]"
8,960,"O=C(NCc1ccc(Cl)c(Cl)c1)OC[C@H](CCN1CCC2(CC2)[C@H](O)C1)N1CCN(C(=O)NCc2ccc(Cl)c(Cl)c2)CCC1=O [Example 52, (3,4-dichloro-benzyl)-carbamic acid (S)-2-[4-(3,4-dichloro-benzylcarbamoyl)-7-oxo-[1,4]diazepan-1-yl]-4-((S)-4-hydroxy-6-aza-spiro[2.5]oct-6-yl)-butyl ester]"
9,1,"O=C(Nc1ccc(Cl)c(Cl)c1)N1CCC(=O)N([C@H](CO)CCN2CCC3(CC3)[C@H](O)C2)CC1 [Example 53, 4-[(S)-3-((S)-4-Hydroxy-6-aza-spiro[2.5]oct-6-yl)-1-hydroxymethyl-propyl]-5-oxo-[1,4]diazepane-1-carboxylic acid (3,4-dichloro-phenyl)-amide]"
10,6,"O=C1CCN(C(=O)Nc2ccc(Cl)c(Cl)c2)CCN1CCCN1CCC2(CC2)[C@H](O)C1 [Example 54, 4-[3-((S)-4-Hydroxy-6-aza-spiro[2.5]oct-6-yl)-propyl]-5-oxo-[1,4]diazepane-1-carboxylic acid (3,4-dichloro-phenyl)-amide]"
11,4,"COCC(CCN1CCC2(CC2)[C@H](O)C1)N1CCN(C(=O)Nc2ccc(Cl)c(Cl)c2)CCC1=O (stereo partly drawn) [Example 55, (R,S)-4-[3-((S)-4-Hydroxy-6-aza-spiro[2.5]oct-6-yl)-1-methoxymethyl-propyl]-5-oxo-[1,4]diazepane-1-carboxylic acid (3,4-dichloro-phenyl)-amide]"
12,2,"COC[C@H](CCN1CCC2(CC2)[C@H](O)C1)N1CCN(C(=O)Nc2ccc(Cl)c(Cl)c2)CCC1=O [Example 56, 4-[(S)-3-((S)-4-hydroxy-6-aza-spiro[2.5]oct-6-yl)-1-methoxymethyl-propyl]-5-oxo-[1,4]diazepane-1-carboxylic acid (3,4-dichloro-phenyl)-amide]"
13,240,"COC[C@@H](CCN1CCC2(CC2)[C@H](O)C1)N1CCN(C(=O)Nc2ccc(Cl)c(Cl)c2)CCC1=O [Example 57, 4-[(R)-3-((S)-4-hydroxy-6-aza-spiro[2.5]oct-6-yl)-1-methoxymethyl-propyl]-5-oxo-[1,4]diazepane-1-carboxylic acid (3,4-dichloro-phenyl)-amide]"
14,3,"C[C@@H]1CN(CCCN2CCC3(CC3)[C@H](O)C2)C(=O)CCN1C(=O)Nc1ccc(Cl)c(Cl)c1 [Example 58, (R)-4-[3-((S)-4-Hydroxy-6-aza-spiro[2.5]oct-6-yl)-propyl]-2-methyl-5-oxo-[1,4]diazepane-1-carboxylic acid (3,4-dichloro-phenyl)-amide]"
15,60,"C[C@@H]1CN(CCCN2CCC3(CC3)[C@H](O)C2)C(=O)CCN1C(=O)Nc1cccc(Cl)c1 [Example 60, (R)-4-[3-((S)-4-Hydroxy-6-aza-spiro[2.5]oct-6-yl)-propyl]-2-methyl-5-oxo-[1,4]diazepane-1-carboxylic acid (3-chloro-phenyl)-amide]"
16,210,"Cc1ccc(NC(=O)N2CCC(=O)N(CCCN3CCC4(CC4)[C@H](O)C3)C[C@H]2C)cc1C [Example 61, (R)-4-[3-((S)-4-Hydroxy-6-aza-spiro[2.5]oct-6-yl)-propyl]-2-methyl-5-oxo-[1,4]diazepane-1-carboxylic acid (3,4-dimethyl-phenyl)-amide]"
17,30,"COC(=O)[C@H](CCN1CCC2(CC2)[C@H](O)C1)N1C[C@@H](C)N(C(=O)Nc2cccc(Cl)c2)CCC1=O [Example 62, (S)-2-[(R)-4-(3-Chloro-phenylcarbamoyl)-3-methyl-7-oxo-[1,4]diazepan-1-yl]-4-((S)-4-hydroxy-6-aza-spiro[2.5]oct-6-yl)-butyric acid methyl ester]"
18,5,"C[C@H]1C(=O)N(CCCN2CCC3(CC3)[C@H](O)C2)CCN1C(=O)Nc1cccc(Cl)c1 [Example 69, (S)-4-[3-((S)-4-Hydroxy-6-aza-spiro[2.5]oct-6-yl)-propyl]-2-methyl-3-oxo-piperazine-1-carboxylic acid (3-chloro-phenyl)-amide]"
19,4,"C[C@H]1C(=O)N(CCCN2CCC3(CC3)[C@H](O)C2)CCN1C(=O)Nc1ccc(F)c(Cl)c1 [Example 70, (S)-4-[3-((S)-4-Hydroxy-6-aza-spiro[2.5]oct-6-yl)-propyl]-2-methyl-3-oxo-piperazine-1-carboxylic acid (3-chloro-4-fluoro-phenyl)-amide]"
20,2,"C[C@H]1C(=O)N(CCCN2CCC3(CC3)[C@H](O)C2)CCN1C(=S)Nc1ccc(Cl)c(Cl)c1 [Example 71, (S)-4-[3-((S)-4-Hydroxy-6-aza-spiro[2.5]oct-6-yl)-propyl]-2-methyl-3-oxo-piperazine-1-carbothioic acid (3,4-dichloro-phenyl)-amide]"
21,8,"C[C@H]1C(=O)N(CCCN2CCC3(CC3)[C@H](O)C2)CCN1C(=O)Nc1ccc(Cl)cc1 [Example 72, (S)-4-[3-((S)-4-Hydroxy-6-aza-spiro[2.5]oct-6-yl)-propyl]-2-methyl-3-oxo-piperazine-1-carboxylic acid (4-chloro-phenyl)-amide]"
22,21,"C[C@H]1C(=O)N(CCCN2CCC3(CC3)[C@H](O)C2)CCN1C(=O)Nc1cccc(F)c1 [Example 73, (S)-4-[3-((S)-4-Hydroxy-6-aza-spiro[2.5]oct-6-yl)-propyl]-2-methyl-3-oxo-piperazine-1-carboxylic acid (3-fluoro-phenyl)-amide]"
23,64,"C[C@H]1C(=O)N(CCCN2CCC3(CC3)[C@H](O)C2)CCN1C(=O)Nc1ccccc1 [Example 74, (S)-4-[3-((S)-4-Hydroxy-6-aza-spiro[2.5]oct-6-yl)-propyl]-2-methyl-3-oxo-piperazine-1-carboxylic acid phenylamide]"
24,3,"C[C@H]1C(=O)N(CCCN2CCC3(CC3)[C@H](O)C2)CCN1C(=O)Nc1ccc2ccccc2c1 [Example 75, (S)-4-[3-((S)-4-Hydroxy-6-aza-spiro[2.5]oct-6-yl)-propyl]-2-methyl-3-oxo-piperazine-1-carboxylic acid naphthalen-2-ylamide]"
25,3,"C[C@H]1C(=O)N(CCCN2CCC3(CC3)[C@H](O)C2)CCN1C(=O)Nc1ccc(-c2ccccc2)cc1 [Example 76, (S)-4-[3-((S)-4-Hydroxy-6-aza-spiro[2.5]oct-6-yl)-propyl]-2-methyl-3-oxo-piperazine-1-carboxylic acid biphenyl-4-ylamide]"
